These results are taken from the NIST ThermoML archive (doi:10.1021/acs.jced.7b00740).

The conditions of series [1]: Liquid; for mass density: 293.15 K, 101.33 kPa, Pycnometric method; for vapor or sublimation pressure: Ebulliometric method (Recirculating still).
Series [2] is described as follows: refractive index (Na D-line) (dimensionless). To be noted: 298.15 K; 101.33 kPa; Liquid; Standard Abbe refractometry.

As a reminder, the mass density is mass per unit of volume. The vapor or sublimation pressure is the pressure of vapour in equilibrium with the condensed phase. What is called refractive index is the speed of light in vacuum divided by its phase velocity in the sample.

Numbers after ± are expanded uncertainties.

For `CCCOCOCC` [1-(ethoxymethoxy)propane], the mass density in series [1] stood at 831.1 ± 0.7 kg/m3. Further, the “vapor or sublimation pressure” value in series [1] (386.53 K) was 101.33 ± 1 kPa. Besides, the refractive index in series [2] is listed as 1.3818 ± 0.0005.

For the compound `CCCOCOC` [1-(methoxymethoxy)propane], the mass density in series [1] stood at 841.2 ± 0.7 kg/m3. For the same compound, in series [1] (366.13 K), the “vapor or sublimation pressure” value was found to be 101.33 ± 1 kPa. The refractive index in series [2] was 1.3757 ± 0.0005.

As to `COCOCOC` [2,4,6-trioxaheptane], in series [1], the mass density came out at 958 ± 0.8 kg/m3. Also, in series [1] (378 K), the “vapor or sublimation pressure” value was determined as 101.33 ± 1 kPa. Further, the refractive index in series [2] came to 1.379 ± 0.0005.

For `CCCCO` [butan-1-ol], the mass density in series [1] worked out at 809.5 ± 0.7 kg/m3. Further, the “vapor or sublimation pressure” value in series [1] (390.92 K) is on record as 101.33 ± 1 kPa. Further, the refractive index in series [2] came to 1.3971 ± 0.0005.

On to `CCO` [ethanol], for which the mass density in series [1] is on record as 789.2 ± 0.7 kg/m3. Further, the “vapor or sublimation pressure” value in series [1] (351.51 K) worked out at 101.33 ± 1 kPa. Moreover, the refractive index in series [2] is given as 1.3595 ± 0.0005.

Turning to `CCCO` [propan-1-ol], the mass density in series [1] is recorded as 803.6 ± 0.7 kg/m3. Also, in series [1] (370.42 K), the “vapor or sublimation pressure” value is reported as 101.33 ± 1 kPa. Moreover, the refractive index in series [2] amounted to 1.3835 ± 0.0005.
